Results as given in patent US7902170B2, “Influenza virus binding, sialylated oligosaccharide substance and use thereof” (priority 2000, dated 2011).
“Also recorded” adds a separate entry of the source.

tested on: human influenza A virus X-113 reassortant vaccine strain (hemagglutinin and neuraminidase of A/Texas/36/91, H1N1); type: binding

Substance | Binding of human influenza virus HRP conjugate to glycolipid on TLC plate
NeuAcα3Galβ4(Fucα3)GlcNAcβ- | excluded; also recorded: no binding
NeuAcα3Galβ4GlcNAcβ3Galβ4(Fucα3)GlcNAcβ- [VIM-2] | excluded; also recorded: no binding
NeuAcα3Galβ4GlcβCer [GM3] | did not see binding
NeuAcα6Galβ4GlcNAcβ3Galβ4GlcNAcβ3Galβ4GlcβCer [7-sugar NeuAc-6-neolacto ganglioside] | did not show binding; also recorded: no binding at all
NeuAcα6Galβ4GlcNAcβ3Galβ4GlcβCer [S-6-PG] | did not show binding; also recorded: no binding at all
sulfatide | probably unspecific interaction
